Laboratory results taken from patent US20120315290A1, “INHIBITORS OF LL-37 MEDIATED IMMUNE REACTIVITY TO SELF NUCLEIC ACIDS” (BOARD OF REGENTS, THE UNIVERSITY OF TEXAS SYSTEM, priority 2006, published 2012).
Entries after “also recorded” stand apart in the source; their conditions may differ.

Experiments:
[1] = system: Thy1.2 positive CD4 T cells; assay: Adjuvant activity: expansion of transferred HNT-TCR Tg CD4+ T cells in draining LN; type: in vivo, BALB/c Thy1.1 mice; settings: 35 μg s.c. with A20 lysate plus HNT peptide
Protocol: CD4+ T cells were purified from spleen and LN of HNT-TCR Tg mice (Thy 1.2), labeled with CFSE, and adoptively transferred (1×10^6) into BALB/c Thy1.1 mice. Next day, mice were immunized s.c. with (a) 5×10 ^6 A20 lysate plus HNT peptide and CpG-2216 ([…]); (b) A20 lysate plus HNT peptide and LL-37 ([…]); (c) A20F lysate plus HNT peptide; or (d) left untreated. Four days after immunization draining LN were harvested and Thy 1.2 positive CD4 T cells were measured by flow cytometry.
In another set of experiments, CD4+ T cells were purified from spleen and LN of HNT-TCR Tg mice (Thy 1.2), labeled with CFSE, and adoptively transferred (1×10^6) into BALB/c Thy1.1 mice. Next day, mice were immunized subcutaneously with 5×10^6 A20 lysate plus HNT peptide and CpG-2216 (35 μg), A20 lysate plus HNT peptide and LL-37 (35 μg), A20F lysate plus HNT peptide, or left untreated. Four days after immunization draining LN were harvested and Thy1.2 positive CD4 T cells were measured by flow cytometry.

B16 tumors = assay: Intratumoral or intramuscular injection, cytokine mRNA by real-time PCR; type: in vivo, C57BL/6 mice
Protocol: […] of LL-37, CpG-A or PBS alone was injected into B16 tumors grown for 7 days in Flt-L treated mice. Tumors were harvested after 6, 24, 48 and 72 h, total RNA was extracted and expression of indicated cytokines was measured by real-time PGR. Data represent expression relative to GAPDH RNA. Some mice were injected with […] of LL-37 for 3 times (t0, t24 and t48) and tumor was harvested at 72 h for RNA expression analysis.
LL-37, CpG, or saline (PBS) was injected into B16 tumors grown for 7 days in Flt-L treated mice. Tumors were harvested after 6, 24, 48 and 72 h, total RNA was extracted and expression of indicated cytokines was measured by real-time PGR. Data represent expression relative to GAPDH RNA. Data is representative of 5 mice.
[…] of LL-37 were injected into 7d-established B16 skin tumors and muscle tissue of the same mice. After 6 h tumor and muscle tissue were collected for RT-PCR analysis of IFN-a2 mRNA expression. Data represent expression relative to GAPDH RNA
In another set of experiments, 100 μg of LL-37, CpG-A or PBS alone was injected into B16 tumors grown for 7 days in Flt-L treated mice. Tumors were harvested after 6, 24, 48 and 72 h, total RNA was extracted and expression of indicated cytokines was measured by real-time PCR. […] Some mice were injected with 100 μg of LL-37 for 3 times (t0, t24 and t48) and tumor was harvested at 72 h or RNA expression analysis.
Intratumoral injection of LL-37 into native unmodified B16 melanoma induces potent type I IFN expression. 3×10^5 native B16 melanoma cells were inoculated into C57BL/6 mice. After 7 days, tumors were injected with 100 μg of LL-37, 40 μg CpG-2216 (CpG-A), or saline (PBS). Because LL-37-DNA binding (which will occur in the tumor) is optimal at a 3:1-5:1 ratio, we injected approximately 3 times more LL-37 than CpG-DNA. Tumors were harvested at 6 h, 24 h, 48 h, and 72 h after injection and total RNA was isolated and processed. Expression of IFN-α2 mRNA was measured by real-time PCR and normalized for expression of GAPDH mRNA.
LL-37 can induce type I IFN expression when injected into tumors but not into healthy tissue. Because LL-37 requires the presence of self-DNA released by dying cells to induce pDC activation to produce type I IFN, we next asked whether LL-37 could selectively induce type I IFN expression in tumors (containing a high degree of cells death) and not in healthy tissue. To address this question we injected LL-37 (100 μg) into subcutaneously implanted B16 tumors as well as healthy muscle tissue. 6 h after injection, tissues were collected and IFN-α2 mRNA expression was measured by real-time PCR, as described in C12.

B16-OVA tumor = assay: Vaccination of mice bearing established B16-OVA melanoma, tumor size; type: in vivo, C57BL/6 mice; settings: mixed with irradiated B16-OVA
Protocol: Mice bearing a 7-d subcutaneous B16 melanoma transfected with a gene encoding OVA (B16-OVA) were vaccinated subcutaneously with 1) LL-37 alone; irradiated B16-OVA tumor (iB16-OVA); irradiated B16-OVA tumor mixed with […] CpG-2216 (iB16-OVA+CpG); irradiated B16-OVA tumor with […] LL-37 (iB16-OVA+LL-37). Tumor size was monitored by caliper every second day. Data represent mean of 4 mice per group.
We also performed vaccine studies using the B16 tumor model of melanoma, B16 is a highly aggressive tumor with low immunogenicity. B16 tumor cells can be transfected with ovalbumin (OVA) to provide an immunogen that allows easy tracking of the anti-tumor immune response. 3×10^5 B16-OVA tumor cells were implanted subcutaneously in the flank of C57BL/6 mice and allowed to grow. Seven days later mice were treated with a single subcutaneous injection of LL-37 mixed with irradiated B16-OVA tumor cells. Control injections included LL-37 alone, irradiated B16-OVA alone, or irradiated B16-OVA mixed with the synthetic TLR9 agonist CpG. A detailed method on the generation of these vaccines is provided in D2.1. Tumor size was monitored with a caliper and volumes estimated using the formula […]. The experiment was stopped 10 days after injection because all mice in the control group had died or their tumor had reached 20 mm in their maximal diameter.

U937 = assay: Binding and protection of DNA released by dying tumor cells (electrophoresis of supernatants); type: cell-based, human; settings: irradiated tumor cells, 24 h culture
Protocol: (a) U937 were UV-irradiated to induce apoptosis and cultured for 24 h, or rendered necrotic by repeated freeze/thaw cycles and stained with Annexin V and PI to visualize apoptosis and necrosis. (b) 5×10^6 live U937 cells (lines 1+2), or apoptotic UV-irradiated U937 (lines 3+4) were cultured for 24 h either alone or in the presence of LL-37 ([…]) before cell free supernatant was collected. U397 were also lyzed by freeze-thaw cycles to induce primary necrosis and cultured for 1 h either alone or in the presence of LL-37 ([…]) before cell free supernatant was collected. 20 ul of the supernatants in buffer were loaded onto 1% agarose gel and the electrophoresis was ran for 1.5 hrs at 100V. The image was acquired with a Biorad gel imaging system.
LL-37 combined with dying tumor cells can bind tumor-derived self-DNA in-vitro. To test the ability of LL-37 to bind and protect self-DNA released by dying tumor cells, we generated apoptotic and necrotic tumor cells in the presence or absence of LL-37, and measured DNA contents in culture supernatants by electrophoresis. Primary necrosis induced by consecutive freeze and thaw cycles, and apoptosis with secondary necrosis induced by γ-irradiation at 20,000 rad followed by a 24 h culture (at 5×10^6 cells in 500 μl) were confirmed by Annexin plus PI staining (FIG. 26a).

For “LLGDFFRKSKEKIGKEFKRIVQRIKDFLRNLVPRTES [LL-37]”, the “Induction of T cell mediated immunity (adjuvant activity)” value [1] was “potent adjuvant activity”, the “IFN-α2 mRNA expression in tumor compared to CpG-A” value (B16 tumors; 100 μg LL-37 vs 40 μg CpG-2216) was “more potent then the expression induced by CpG-A” and the “IFN-α2 mRNA expression in healthy muscle tissue” value (B16 tumors; 100 μg injected, 6 h) was “not LL-37-injected healthy muscle tissue”. For the same sequence, the “IFN-α2 mRNA expression in B16 tumor” value (B16 tumors; 100 μg intratumoral) was “induced potent IFN-α2 mRNA expression; also recorded: IFN-α2 mRNA expression only in LL-37-injected tumors”, the “Expression of pro-inflammatory and T-cell-derived cytokines in tumor” value (B16 tumors; 100 μg intratumoral, Flt-L treated mice, 6-72 h) was “induces expression of pro-inflammatory and T-cell-derived cytokines” and the “Adjuvant potency compared to CpGs (CpG-2216)” value (B16-OVA tumor) was “more potent than CpGs”. For the same sequence, the “DNA detected in culture supernatants of dying tumor cells” value (U937) was “exclusively detected DNA in supernatants of irradiated tumor cells cultured with LL-37”.
